Experimental findings from patent publication US6552015B2, “Azabicycloalkane derivatives and therapeutic uses thereof” (Pfizer Inc., priority 2000, dated 2003) are described below.

Structures can show the parent of a compound that is named as a salt.

The compound `Cc1ccc2[nH]c(=O)n(CCCN3C4CCC3CN(c3ccc(Cl)cc3)C4)c(=O)c2c1` (as salt: hydrochloride) registered a melting point greater than 300 °C.

As to `O=c1[nH]c2c(Cl)cccc2c(=O)n1CCCN1C2CCC1CN(c1ccc(Cl)cc1)C2` (as salt: maleate), the melting point was in the range of 186 to 188 °C.

For `Cc1ccc(N2CC3CCC(C2)N3CCCn2c(=O)[nH]c3c(Cl)cccc3c2=O)c(C)c1` (as salt: maleate), the melting point was 217 to 219 °C.

`O=c1[nH]c2c(Cl)cccc2c(=O)n1CCCN1C2CCC1CN(c1ccc(Cl)c(Cl)c1)C2` (as salt: maleate) showed a melting point of 205 to 207 °C.

Regarding `O=c1[nH]c2ccccc2c(=O)n1CCCN1C2CCC1CN(c1ccc(Cl)c(Cl)c1)C2` (as salt: maleate), the melting point is 105 to 108 °C (dec.).

The compound `O=c1[nH]c2c(Cl)cccc2c(=O)n1CCCN1C2CCC1CN(c1ccc(F)cc1)C2` (as salt: maleate) registered a melting point of 173 to 175 °C.

`O=c1[nH]c2ccccc2c(=O)n1CCCN1C2CCC1CN(c1ccc(F)cc1)C2` (as salt: maleate) yielded a melting point of 70 to 74 °C.

As for `O=c1[nH]c2c(Cl)cccc2c(=O)n1CCCN1C2CCC1CN(c1ccc(C(F)(F)F)cc1)C2` (as salt: maleate), the melting point fell in the range of 205 to 207 °C.

Turning to `O=c1[nH]c2c(Cl)cccc2c(=O)n1CCCCN1C2CCC1CN(c1ccc(Cl)cc1)C2` (as salt: maleate), the melting point lay in the range of 235 to 238 °C.

`O=c1[nH]c2ccccc2c(=O)n1CCCCN1C2CCC1CN(c1ccc(Cl)cc1)C2` (as salt: maleate) returned a melting point of 187 to 189 °C.

For `Cc1ccc(N2CC3CCC2CN3CCCn2c(=O)[nH]c3c(Cl)cccc3c2=O)c(C)c1` (stereo not shown) (as salt: maleate), the melting point is 149 to 151 °C.

Compound `O=c1[nH]c2c(Cl)cccc2c(=O)n1CCCN1CC2CC1CN2c1ccc(Cl)cc1` (stereo not shown) (as salt: maleate) [Example 41, 8-CHLORO-3-{3-[5-(4-CHLORO-PHENYL)-2,5-DIAZA-BICYCLO[2.2.1]HEPT-2-YL]-PROPYL}-1H-QUINAZOLINE-2,4-DIONE] showed a melting point of 205 to 207 °C.

Regarding `O=c1[nH]c2c(Cl)cccc2c(=O)n1CCCN1CC2CC1CN2c1cccc(F)c1` (stereo not shown) (as salt: maleate) [Example 42, 8-CHLORO-3-{3-[5-(3-FLUORO-PHENYL)-2,5-DIAZA-BICYCLO[2.2.1]HEPT-2-YL]-PROPYL}-1H-QUINAZOLINE-2,4-DIONE], the melting point was in the range of 168 to 170 °C.

The compound `O=c1[nH]c2c(Cl)cccc2c(=O)n1CCCN1CC2CCC1CN2c1ccc(F)cc1` (stereo not shown) (as salt: maleate) [Example 46, 8-CHLORO-3-{3-[5-(4-FLUORO-PHENYL)-2,5-DIAZA-BICYCLO[2.2.2]OCT-2-YL]-PROPYL}-1H-QUINAZOLINE-2,4-DIONE] gave a melting point of 186 to 188 °C.

As to `O=c1[nH]c2c(Cl)cccc2c(=O)n1CCCN1CC2CCC1CN2c1ccc(Cl)c(Cl)c1` (stereo not shown) (as salt: maleate) [Example 48, 8-CHLORO-3-{3-[5-(3,4-DICHLORO-PHENYL)-2,5-DIAZA-BICYCLO[2.2.2]OCT-2-YL]-PROPYL}-1H-QUINAZOLINE-2,4-DIONE], the melting point was 68 to 73 °C (dec.).

For the compound `O=c1[nH]c2ccccc2c(=O)n1CCCN1CC2CCC1CN2c1ccc(F)cc1` (stereo not shown) (as salt: maleate) [Example 49, 3-{3-[5-(4-FLUORO-PHENYL)-2,5-DIAZA-BICYCLO[2.2.2]OCT-2-YL]-PROPYL}-1H-QUINAZOLINE-2,4-DIONE], the melting point was 95 to 98 °C (dec.).

One may read the melting point as the temperature, or range, at which the solid turns liquid.
